Laboratory results reported in ChEMBL document CHEMBL5518248, “Design, Synthesis, and Biological Evaluation of Novel Arylomycins against Multidrug-Resistant Gram-Negative Bacteria” (J Med Chem, 2024).

Experiments:
Acinetobacter baumannii [1] = assay: Antibacterial activity against Acinetobacter baumannii 17-8 assessed as inhibition of bacterial growth measured after 18 to 20 hrs by broth microdilution method; format: functional; settings: time 18-20 hrs
[2] = Cytotoxicity against HEK293T cells assessed as inhibition of cell growth at 100 uM incubated for 24 hrs by CCK8 method relative to control; format: toxicity, cell-based, HEK-293T; settings: human
Jurkat [3] = assay: Cytotoxicity against human Jurkat cells assessed as inhibition of cell growth incubated for 24 hrs by CCK8 method; format: functional, cell-based
[4] = Cytotoxicity against HEK293T cells assessed as inhibition of cell growth incubated for 24 hrs by CCK8 method; format: toxicity, cell-based, HEK-293T; settings: human
Pseudomonas aeruginosa [5] = assay: Antibacterial activity against Pseudomonas aeruginosa 19-5 assessed as inhibition of bacterial growth measured after 18 to 20 hrs by broth microdilution method; format: functional; settings: time 18-20 hrs
Klebsiella pneumoniae [6] = assay: Antibacterial activity against Klebsiella pneumoniae 15-4 assessed as inhibition of bacterial growth measured after 18 to 20 hrs by broth microdilution method; format: functional; settings: time 18-20 hrs
Escherichia coli [7] = assay: Antibacterial activity against Escherichia coli 14-2 assessed as inhibition of bacterial growth measured after 18 to 20 hrs by broth microdilution method; format: functional; settings: time 18-20 hrs
Jurkat [8] = assay: Cytotoxicity against human Jurkat cells assessed as inhibition of cell growth at 100 uM incubated for 24 hrs by CCK8 method relative to control; format: functional
Escherichia coli [9] = assay: Antibacterial activity against Escherichia coli 14-4 assessed as inhibition of bacterial growth measured after 18 to 20 hrs by broth microdilution method; format: functional; settings: time 18-20 hrs
Pseudomonas aeruginosa [10] = assay: Antibacterial activity against Pseudomonas aeruginosa 17-1 assessed as inhibition of bacterial growth measured after 18 to 20 hrs by broth microdilution method; format: functional; settings: time 18-20 hrs
HepG2 [11] = assay: Cytotoxicity against human HepG2 cells assessed as inhibition of cell growth incubated for 24 hrs by CCK8 method; format: functional, cell-based; settings: HepG2, 24 h
Klebsiella pneumoniae [12] = assay: Antibacterial activity against Klebsiella pneumoniae 15-1 assessed as inhibition of bacterial growth measured after 18 to 20 hrs by broth microdilution method; format: functional; settings: time 18-20 hrs
Escherichia coli [13] = assay: Antibacterial activity against Escherichia coli ATCC 35218 assessed as inhibition of bacterial growth measured after 18 to 20 hrs by broth microdilution method; format: functional; settings: time 18-20 hrs
Klebsiella pneumoniae [14] = assay: Antibacterial activity against Klebsiella pneumoniae 15-5 assessed as inhibition of bacterial growth measured after 18 to 20 hrs by broth microdilution method; format: functional; settings: time 18-20 hrs
HepG2 [15] = assay: Cytotoxicity against human HepG2 cells assessed as inhibition of cell growth at 100 uM incubated for 24 hrs by CCK8 method relative to control; format: functional
Acinetobacter baumannii [16] = assay: Antibacterial activity against Acinetobacter baumannii 17-2 assessed as inhibition of bacterial growth measured after 18 to 20 hrs by broth microdilution method; format: functional; settings: time 18-20 hrs

| Structure (SMILES) | MIC (Acinetobacter baumannii [1]) [µg/mL] | inhibition at 24 h, 100 µM [2] [%] | IC50 (Jurkat [3]) [µM] | IC50 at 24 h [4] [µM] | MIC (Pseudomonas aeruginosa [5]) [µg/mL] | MIC (Klebsiella pneumoniae [6]) [µg/mL] | MIC (Escherichia coli [7]) [µg/mL] | inhibition at 100 µM (Jurkat [8]) [%] | MIC (Escherichia coli [9]) [µg/mL] | MIC (Pseudomonas aeruginosa [10]) [µg/mL] | IC50 (HepG2 [11]) [µM] | MIC (Klebsiella pneumoniae [12]) [µg/mL] | MIC (Escherichia coli [13]) [µg/mL] | MIC (Klebsiella pneumoniae [14]) [µg/mL] | inhibition at 100 µM (HepG2 [15]) [%] | MIC (Acinetobacter baumannii [16]) [µg/mL] |
| --- | --- | --- | --- | --- | --- | --- | --- | --- | --- | --- | --- | --- | --- | --- | --- | --- |
| Cc1nc(-c2ccc(CSSC(C)(C)C)cc2)ncc1C(=O)N[C@@H](CCN)C(=O)N(C)[C@@H]1C(=O)N[C@@H](C)C(=O)N[C@H](C(=O)O)Cc2ccc(OCCN)c(c2)-c2cc1ccc2OCCN.O=C(O)C(F)(F)F.O=C(O)C(F)(F)F.O=C(O)C(F)(F)F.O=C(O)C(F)(F)F | 0.5 | 36.6 | > 100 | > 100 | 32 | ≤ 0.03 | ≤ 0.03 | 27.7 | ≤ 0.03 | 4 | > 100 | ≤ 0.03 | ≤ 0.03 | ≤ 0.03 | -0.02 | 0.25 |
| Cc1nc(-c2ccc(SSC(C)(C)C)cc2)ncc1C(=O)N[C@@H](CCN)C(=O)N(C)[C@@H]1C(=O)N[C@@H](C)C(=O)N[C@H](C(=O)NCC#N)Cc2ccc(OCCN)c(c2)-c2cc1ccc2OCCN.O=C(O)C(F)(F)F.O=C(O)C(F)(F)F.O=C(O)C(F)(F)F.O=C(O)C(F)(F)F | 0.5 | 51.5 | > 100 | > 100 | 4 | ≤ 0.03 | ≤ 0.03 | 38.2 | ≤ 0.03 | 4 | > 100 | ≤ 0.03 | ≤ 0.03 | ≤ 0.03 | -1.65 | 0.25 |
| Cc1nc(-c2ccc(CSSC3CCCC3)cc2)ncc1C(=O)N[C@@H](CCN)C(=O)N(C)[C@@H]1C(=O)N[C@@H](C)C(=O)N[C@H](C(=O)NCC#N)Cc2ccc(OCCN)c(c2)-c2cc1ccc2OCCN.O=C(O)C(F)(F)F.O=C(O)C(F)(F)F.O=C(O)C(F)(F)F.O=C(O)C(F)(F)F | 0.25 | 42.6 | > 100 | > 100 | 4 | 0.06 | 0.125 | 35.4 | ≤ 0.03 | 4 | > 100 | 0.125 | ≤ 0.03 | 0.06 | 3.22 | 1 |
| Cc1nc(-c2ccc(CSSC(C)(C)C)cc2)ncc1C(=O)N[C@@H](CCN)C(=O)N(C)[C@@H]1C(=O)N[C@@H](C)C(=O)N[C@H](C(=O)NCC#N)Cc2ccc(OCCN)c(c2)-c2cc1ccc2OCCN.O=C(O)C(F)(F)F.O=C(O)C(F)(F)F.O=C(O)C(F)(F)F.O=C(O)C(F)(F)F | 0.125 | 43 | > 100 | > 100 | 4 | ≤ 0.03 | ≤ 0.03 | 34.6 | ≤ 0.03 | 4 | > 100 | ≤ 0.03 | ≤ 0.03 | ≤ 0.03 | 28.4 | 0.125 |
| CCCSSCc1ccc(-c2ncc(C(=O)N[C@@H](CCN)C(=O)N(C)[C@@H]3C(=O)N[C@@H](C)C(=O)N[C@H](C(=O)NCC#N)Cc4ccc(OCCN)c(c4)-c4cc3ccc4OCCN)c(C)n2)cc1.O=C(O)C(F)(F)F.O=C(O)C(F)(F)F.O=C(O)C(F)(F)F.O=C(O)C(F)(F)F | 0.125 | 29.9 | > 100 | > 100 | 8 | 0.06 | ≤ 0.03 | 32.5 | ≤ 0.03 | 4 | > 100 | ≤ 0.03 | ≤ 0.03 | ≤ 0.03 | -3.61 | 0.25 |
